Laboratory results reported in patent US6737383B1, “Herbicidal oxadiazolidines” (priority 1999, dated 2004).

Legend:
[1] = test system: rice; test: Test B flood test rice; format: in vivo, Oryza sativa
Summary of the method: (§1)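 Each value is a visual injury score relative to controls, with 10 meaning complete control and 0 no effect. Evaluation took place twelve to sixteen days after the 2-leaf-stage plants were treated and kept in the greenhouse.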

[2] = test system: winter wheat; test: Test E winter wheat; format: in vivo, Triticum aestivum; conditions: Postemergence
Summary of the method: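 For postemergence, sowings are timed so plants reach the 1- to 4-leaf stage at spraying. Test compound is applied in a surfactant-containing solvent mixture that is non-phytotoxic. Response is judged by eye against untreated controls after approximately 21 to 28 days.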

[3] = test system: duck salad; test: Test B flood test duck salad; format: in vivo, Heteranthera limosa
Summary of the method: as §1

[4] = test system: winter wheat; test: Test E winter wheat; format: in vivo, Triticum aestivum; conditions: Preemergence
[5] = test system: giant foxtail; test: Test B pre/postemergence giant foxtail; format: in vivo, Setaria faberii
Summary of the method: (§2)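 Test chemicals in a non-phytotoxic solvent mixture with surfactant were sprayed preemergence onto planted seeds and postemergence onto plants 2 to 18 cm tall (1- to 4-leaf stage). After twelve to sixteen days in a greenhouse, injury was visually rated against untreated controls from 0 (no effect) to 10 (complete control).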

[6] = test system: Italian ryegrass; test: Test E Italian ryegrass; format: in vivo, Lolium multiflorum; conditions: Preemergence
[7] = test system: wild oat; test: Test E wild oat; format: in vivo, Avena fatua; conditions: Preemergence
[8] = test system: blackgrass; test: Test E blackgrass; format: in vivo, Alopecurus myosuroides; conditions: Preemergence
[9] = test system: green foxtail; test: Test E green foxtail; format: in vivo, Setaria viridis; conditions: Preemergence
[10] = test system: winter barley; test: Test E winter barley; format: in vivo, Hordeum vulgare; conditions: Preemergence
[11] = test system: morningglory; test: Test B pre/postemergence morningglory; format: in vivo, Ipomoea hederacea
Summary of the method: as §2

[12] = Rate 62 g/ha, headed Pre-emergence (flood test species), scale 0 to 10 (0 no effect, 10 complete control)
[13] = Rate 125 g/ha, Pre-emergence, flood test species, scale 0 to 10 where 0 is no effect and 10 is complete control
[14] = Rate 250 g/ha, Pre-emergence, flood-test species, scale 0 to 10, 0 is no effect, 10 is complete control
[15] = Rate 500 g/ha, Pre-emergence, flood test species, scale 0 to 10 (0 no effect, 10 complete control)
[16] = Rate 500 g/ha, 0 to 100 scale where 0 is no effect and 100 is complete control
[17] = Rate 1000 g/ha, 0 to 100 scale, 0 no effect, 100 complete control
[18] = Preemergence, Rate 62 g/ha, scale of 0 to 10 where 0 is no effect and 10 is complete control
[19] = Preemergence, Rate 250 g/ha, scale of 0 to 10 where 0 is no effect and 10 is complete control
[20] = Rate 125 g/ha, Postemergence, scale of 0 to 10 where 0 is no effect and 10 is complete control
[21] = Rate 125 g/ha, Preemergence, scale of 0 to 10 where 0 is no effect and 10 is complete control
[22] = Rate 250 g/ha, Postemergence, scale of 0 to 10 where 0 is no effect and 10 is complete control
[23] = Rate 500 g/ha, Postemergence, scale 0 to 10, 0 no effect, 10 complete control

Cc1ccccc1-n1c(=O)on(C(=O)N(c2cccc(F)c2)C(C)C)c1=O [Compound 269] was tested, and the “Rice plant response rating” value [1, 12] was 0, the “Rice plant response rating” value [1, 13] was 0 and the “Rice plant response rating” value [1, 14] was 0. The “Rice plant response rating” value [1, 15] was 0, the “Plant response rating, Wheat (winter)” value ([2]; Rate 1000 g/ha, 0 to 100 scale where 0 is no effect and 100 is complete control) was 55 and the “Wheat (winter) plant response rating” value ([2]; Rate 250 g/ha, 0 to 100 scale where 0 is no effect and 100 is complete control) was 50. For the same compound, the “Plant response rating, Wheat (winter)” value ([2]; Rate 500 g/ha, 0 to 100 scale, 0 is no effect, 100 is complete control) was 40, the “Ducksalad plant response rating” value [3, 12] was 0 and the “Ducksalad plant response rating” value [3, 13] was 0. For the same compound, the “Ducksalad plant response rating” value [3, 14] was 0, the “Ducksalad plant response rating” value [3, 15] was 0 and the “Wheat (winter) plant response rating (0 to 100 scale)” value ([4]; Rate 250 g/ha) was 60. The “Plant response rating, Wheat (winter)” value [4, 16] was 40, the “Plant response rating, Wheat (winter)” value [4, 17] was 50 and the “Giant foxtail plant response rating” value [5, 18] was 3. For the same compound, the “Giant foxtail plant response rating” value [5, 19] was 10, the “Giant foxtail plant response rating” value [5, 20] was 0 and the “Giant foxtail plant response rating” value [5, 21] was 6. For the same compound, the “Plant response rating, Giant foxtail” value [5, 22] was 0, the “Giant foxtail plant response rating” value [5, 23] was 2 and the “I. Ryegrass plant response rating (0 to 100 scale)” value ([6]; Rate 250 g/ha) was 50. The “Plant response rating, I. Ryegrass” value [6, 16] was 60, the “Plant response rating, I. Ryegrass” value [6, 17] was 70 and the “Wild oat plant response rating (0 to 100 scale)” value ([7]; Rate 250 g/ha) was 70. The “Plant response rating, Wild oat” value [7, 16] was 70, the “Plant response rating, Wild oat” value [7, 17] was 70 and the “Blackgrass plant response rating (0 to 100 scale)” value ([8]; Rate 250 g/ha) was 40. The “Plant response rating, Blackgrass” value [8, 16] was 30, the “Plant response rating, Blackgrass” value [8, 17] was 40 and the “Green foxtail plant response rating (0 to 100 scale)” value ([9]; Rate 250 g/ha) was 60. The “Plant response rating, Green foxtail” value [9, 16] was 70, the “Plant response rating, Green foxtail” value [9, 17] was 100 and the “Barley (winter) plant response rating (0 to 100 scale)” value ([10]; Rate 250 g/ha) was 30. For the same compound, the “Plant response rating, Barley (winter)” value [10, 16] was 50, the “Plant response rating, Barley (winter)” value [10, 17] was 60 and the “Morningglory plant response rating” value [11, 18] was 0. The “Morningglory plant response rating” value [11, 19] was 0, the “Plant response rating, Morningglory” value ([11]; Preemergence, Rate 500 g/ha, scale of 0 to 10 where 0 is no effect and 10 is complete control) was 0 and the “Morningglory plant response rating” value [11, 20] was 3. For the same compound, the “Morningglory plant response rating” value [11, 21] was 0, the “Plant response rating, Morningglory” value [11, 22] was 5 and the “Morningglory plant response rating” value [11, 23] was 7.
